Source: ChEMBL document CHEMBL1201862, “PubChem BioAssay data set” (2004)
The source made the active and inactive calls.

How the values were obtained:
[1] = NIH-3T3 fibroblast cytotoxicity, dose response, cytotoxicity control, cell-based, fluorescence, Alamar Blue, secondary assay (AID 2327); type: functional;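 also: NIH-3T3 mouse fibroblasts cultured with fluconazole at 8 µg/mL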
[2] = target: T1, Heat shock factor protein 1 (Mus musculus, UniProt P38532); assay: HSF1 potentiators in luciferase reporter cells, confirmation, cell-based, NIH3T3, luminescence, dose retest (AID 435004); type: functional;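 also: stress induced by proteasome inhibitor MG132 added 30 min after compound; luciferase reporter driven by HSF1 response element in NIH3T3 cells; actives raise luminescence as potentiators of the MG132 stress response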
T1 sequence (P38532 whole entry): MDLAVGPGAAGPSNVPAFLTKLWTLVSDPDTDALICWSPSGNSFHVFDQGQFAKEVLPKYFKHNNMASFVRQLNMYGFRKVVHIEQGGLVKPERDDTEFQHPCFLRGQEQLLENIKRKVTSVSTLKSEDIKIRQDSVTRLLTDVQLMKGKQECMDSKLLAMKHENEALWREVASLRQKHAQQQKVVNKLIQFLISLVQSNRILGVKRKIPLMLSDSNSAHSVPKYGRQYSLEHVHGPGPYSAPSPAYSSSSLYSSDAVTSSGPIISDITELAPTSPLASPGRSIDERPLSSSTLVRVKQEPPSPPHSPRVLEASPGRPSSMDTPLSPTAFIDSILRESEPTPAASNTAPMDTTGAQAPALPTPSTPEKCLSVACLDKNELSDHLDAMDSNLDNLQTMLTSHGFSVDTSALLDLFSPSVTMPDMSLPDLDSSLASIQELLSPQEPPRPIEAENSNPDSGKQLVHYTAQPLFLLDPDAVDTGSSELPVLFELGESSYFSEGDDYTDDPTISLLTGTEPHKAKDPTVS

[3] = C. albicans growth with fluconazole, confirmation, fluorescence, retest (AID 2467); type: functional, cell-based
[4] = Luminescence Cell-Based Dose Retest to Confirm Inhibitors of Cancer Stem Cells. [Related pubchem assays (depositor defined):AID2717, AID2721]; type: functional; details: Homo sapiens
[5] = target: T1, Heat shock factor protein 1; assay: inhibition of MG132-induced HSE-luciferase signal, confirmation, cell-based, NIH3T3, luminescence, dose retest (AID 2382); type: functional;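 also: NIH3T3 fibroblasts with HSF1-driven luciferase reporter stressed by proteasome inhibitor MG132; luminescence from HSF1-driven luciferase expression after 8 hours of MG132 stress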
[6] = test system: Streptococcus sp. 'group A'; assay: growth inhibition of control SK(-) GAS strain, dose response, counter-screen for streptokinase expression inhibitor project, luminescence, kanamycin, BacTiterGlo, confirmation (AID 1900); type: functional, organism-based
Streptokinase A = target: T2, Streptokinase A (Streptococcus pyogenes serotype M1, UniProt P10520); assay: S. pyogenes streptokinase expression inhibitors, potency, dose response, plasminogen activation absorbance, OD405 (AID 1914); type: functional, Streptococcus pyogenes M1 GAS;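 also: secreted streptokinase activity via plasminogen activation per viability signal from cell pellet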
T2 sequence (P10520 whole entry): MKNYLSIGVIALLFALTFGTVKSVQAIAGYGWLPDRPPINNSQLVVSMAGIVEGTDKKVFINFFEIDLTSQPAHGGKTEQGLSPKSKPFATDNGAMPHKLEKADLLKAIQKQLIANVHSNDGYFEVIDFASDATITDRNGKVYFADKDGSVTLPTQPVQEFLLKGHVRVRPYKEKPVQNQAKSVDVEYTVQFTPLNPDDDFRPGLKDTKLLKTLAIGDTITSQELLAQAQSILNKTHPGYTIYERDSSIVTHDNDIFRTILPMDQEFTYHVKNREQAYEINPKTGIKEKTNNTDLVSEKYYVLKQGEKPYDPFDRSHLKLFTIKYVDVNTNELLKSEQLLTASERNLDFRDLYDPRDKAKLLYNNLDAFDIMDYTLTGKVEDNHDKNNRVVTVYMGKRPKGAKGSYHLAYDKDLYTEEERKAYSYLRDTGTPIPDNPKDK

Streptococcus = assay: Group A Streptococcus viability loss, dose response, counter-screen for streptokinase expression inhibitor project, luminescence, BacTiterGlo (AID 1915); type: functional, organism-based;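 also: potency for reduction of bacterial viability or growth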
[7] = Luminescence Cell-Based Dose Response HTS to Identify Activators of Luciferase Translation or Activity in H4 […] Cells. [Related pubchem assays: 1829 (Project Summary), 1814 (Primary HTS)]; type: functional
H4 = assay: Luminescence Cell-Based Dose Response HTS to Identify Activators of 5'UTR Stem-Loop Driven Prion Protein mRNA Translation in H4 Neuroglioblastoma Cells. [Related pubchem assays: 1829 (Project Summary), 1814 (Primary HTS)]; type: functional; details: Homo sapiens
[8] = Shn3 3'UTR reporter inhibitors, dose response, cell-based, Clone20 osteoblasts, firefly luciferase, cherry-picked (AID 624132); type: functional;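 also: firefly luciferase luminescence from reporter carrying the Shn3 3'UTR in osteoblasts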
[9] = control 3'UTR Renilla luciferase suppression, dose response, counter-screen for Shn3 inhibitor project, cell-based, Clone20-Shn3RL, cherry-picked (AID 624133); type: functional
[10] = HepG2 cell cytotoxicity, dose response, cytotoxicity control for Shn3 inhibitor project, CellTiter-Glo, cherry-picked (AID 624134); type: functional, cell-based
Cytochrome P450 2C9 = Cytochrome P450 2C9 (Homo sapiens, UniProt P11712)
Cytochrome P450 3A4 = Cytochrome P450 3A4 (Homo sapiens, UniProt P08684);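 also: CYP3A4 tested as one member of a cytochrome P450 panel screen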
Cytochrome P450 2C19 = Cytochrome P450 2C19 (Homo sapiens, UniProt P33261); assay: Cytochrome panel assay with activity outcomes. Panel member name: p450-cyp2c19 Compounds with AC50 equal or less than 10 uM are considered active; type: functional; details: read-out: AC50
INS1 = assay: beta cell apoptosis inhibitors, cytokine rescue, dose response, luminescence, retest (AID 449756); type: functional, cell-based; details: Rattus norvegicus;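 also: cell death triggered by IL-1 beta plus TNF-alpha plus IFN-gamma mixture; protective hits raise ATP signal compared with cytokine alone wells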
[11] = HEp-2 cell cytotoxicity, dose response, cytotoxicity control for RSV inhibitor project, HTS (AID 2410); type: functional; details: human respiratory syncytial virus
[12] = inhibitors of intracellular T. cruzi replication, confirmation, NIH3T3 host cells, beta-gal luminescence (AID 2044); type: functional, cell-based;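 also: intracellular parasites grown in NIH/3T3 mouse fibroblasts as host cells; luminescent beta-galactosidase reporter signal from transgenic T. cruzi replicating inside host cells; inhibitors lower the luminescence signal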
[13] = cytotoxicity toward NIH3T3 fibroblasts, dose response, counter-screen, cell-based, ATP luminescence, mouse fibroblasts (AID 2010); type: functional;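 also: cells exposed to compound for about 90 hours before reading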

Chain of Cytochrome P450 2C19 (P33261 whole entry): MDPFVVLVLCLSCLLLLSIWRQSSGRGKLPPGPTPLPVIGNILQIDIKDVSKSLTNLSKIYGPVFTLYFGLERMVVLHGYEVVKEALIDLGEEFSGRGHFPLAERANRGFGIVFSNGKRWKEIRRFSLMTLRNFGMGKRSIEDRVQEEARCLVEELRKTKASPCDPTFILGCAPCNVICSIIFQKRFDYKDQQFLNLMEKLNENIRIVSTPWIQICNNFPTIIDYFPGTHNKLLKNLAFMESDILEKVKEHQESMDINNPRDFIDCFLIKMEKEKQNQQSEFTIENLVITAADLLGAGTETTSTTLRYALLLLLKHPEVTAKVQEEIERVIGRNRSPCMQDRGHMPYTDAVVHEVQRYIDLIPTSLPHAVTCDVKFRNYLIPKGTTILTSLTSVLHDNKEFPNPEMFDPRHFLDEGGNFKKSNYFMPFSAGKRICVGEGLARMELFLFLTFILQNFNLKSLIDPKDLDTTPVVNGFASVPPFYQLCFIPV
Chain of Cytochrome P450 2C9 (P11712 whole entry): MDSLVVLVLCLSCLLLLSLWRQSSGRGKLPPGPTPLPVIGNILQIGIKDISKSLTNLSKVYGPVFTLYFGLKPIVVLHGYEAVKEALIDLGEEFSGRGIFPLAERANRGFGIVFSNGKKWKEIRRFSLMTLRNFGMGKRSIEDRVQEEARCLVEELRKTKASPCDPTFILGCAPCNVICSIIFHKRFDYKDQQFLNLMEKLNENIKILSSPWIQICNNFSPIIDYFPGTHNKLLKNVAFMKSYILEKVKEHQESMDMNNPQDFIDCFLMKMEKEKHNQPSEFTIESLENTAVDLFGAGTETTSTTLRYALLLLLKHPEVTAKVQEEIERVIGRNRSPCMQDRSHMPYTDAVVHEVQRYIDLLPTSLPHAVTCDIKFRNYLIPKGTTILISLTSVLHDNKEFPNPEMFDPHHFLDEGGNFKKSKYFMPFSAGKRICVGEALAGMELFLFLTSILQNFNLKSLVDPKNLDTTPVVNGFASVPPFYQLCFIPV
Chain of Cytochrome P450 3A4 (P08684 whole entry): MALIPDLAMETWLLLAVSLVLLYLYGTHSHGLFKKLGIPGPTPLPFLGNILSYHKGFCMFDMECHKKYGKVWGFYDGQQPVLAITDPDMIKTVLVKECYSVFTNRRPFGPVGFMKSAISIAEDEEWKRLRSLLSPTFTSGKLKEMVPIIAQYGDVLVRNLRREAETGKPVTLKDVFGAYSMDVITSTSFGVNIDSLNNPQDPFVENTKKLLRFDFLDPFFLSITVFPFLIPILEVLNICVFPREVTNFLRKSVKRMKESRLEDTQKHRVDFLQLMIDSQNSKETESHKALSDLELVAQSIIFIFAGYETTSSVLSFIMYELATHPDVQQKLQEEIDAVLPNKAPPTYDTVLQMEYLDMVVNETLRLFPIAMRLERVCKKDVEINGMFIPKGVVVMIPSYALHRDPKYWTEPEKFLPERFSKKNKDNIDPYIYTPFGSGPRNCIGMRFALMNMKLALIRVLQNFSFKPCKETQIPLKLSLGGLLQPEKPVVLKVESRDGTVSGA

## Cc1ccc(NNC(=O)c2cccs2)cc1Cl
[1]
  EC50: 29.6 µM (active)
[2]
  EC50: > 260 µM (inactive)
[3]
  EC50: 1.62 µM (active)
[4]
  AC50: 1.96 µM (active)

## CC1CC1C(=O)OCC(=O)NCc1ccc(Cl)cc1Cl (configuration not stated)
[5]
  EC50: > 195 µM (not active)

## CCc1nnc(NC(=O)Cn2ccc(C(F)(F)F)n2)s1
[1]
  EC50: > 150 µM (inactive)
[3]
  EC50: > 38 µM (not active)

## COc1ccc(S(=O)(=O)N2CCOC2CNC(=O)C(=O)NCc2ccccc2Cl)cc1 (configuration not stated)
[6]
  EC50: > 150 µM (not active)
Streptokinase A
  EC50: > 150 µM (not active)
Streptococcus
  EC50: > 150 µM (not active)

## CC1(C)CC(N/C=C2/C(=O)N(Cc3ccc4c(c3)OCO4)C(=O)c3ccccc32)CC(C)(C)N1
[1]
  EC50: > 160 µM (inactive)
[3]
  EC50: 5.68 µM (active)

## Cc1csc(NC(=O)Nc2ccccc2[N+](=O)[O-])n1
[7]
  EC50: 12.5 µM (active)
H4
  EC50: 94 µM (active)

## COC(=O)C1=C(c2ccc(OCc3ccccc3)cc2)C[C@@H]2CC[C@H]1N2C(=O)NCc1ccc(OC)c(OC)c1
[8]
  AC50: 19.7 µM (active)
[9]
  AC50: 30.1 µM (active)

## O=C(CN1CCCCCC1)Nc1ccccc1Oc1ccccc1
[4]
  AC50: 0.493 µM (active)

## COc1cc(C(=O)OCc2cc(=O)c(O)co2)ccc1OC(F)F
[1]
  EC50: > 160 µM (inactive)
[3]
  EC50: > 38 µM (not active)

## COc1ccc(C(=O)c2coc3ccc(O)c(CN(C)C)c23)cc1
[2]
  EC50: > 260 µM (inactive)

## O=[N+]([O-])c1cccc(-c2nnc(CNC3CC3)o2)c1
[2]
  EC50: > 260 µM (inactive)

## COc1ccc(NC(=O)c2nn(C)c(=O)c3ccccc23)cc1S(=O)(=O)Nc1ccccc1Cl
[2]
  EC50: 18.4 µM (active)

## Cc1ccc(CN2CN(S(=O)(=O)c3cccs3)c3nc4ccccc4nc32)cc1
[6]
  EC50: 56 µM (active)
Streptokinase A
  EC50: > 150 µM (not active)
Streptococcus
  EC50: 63.7 µM (active)

## O=C(C1CCC(CNS(=O)(=O)c2cccs2)CC1)N1CCN(c2ccc(Cl)cc2)CC1 (configuration not stated)
[8]
  AC50: 1.61 µM (active)
[10]
  AC50: 2.76 µM (active)
[9]
  AC50: 16 µM (active)

## Cc1nc(C(=O)NNC(=O)c2cccc(Cl)c2)c(C(F)(F)F)o1
[5]
  EC50: > 195 µM (not active)

## CN(Cc1ccc(N(C)C)cc1)C(=O)c1cc2ccccc2o1
[6]
  EC50: > 150 µM (not active)
Streptokinase A
  EC50: > 150 µM (not active)
Streptococcus
  EC50: > 150 µM (not active)

## CCCOc1ccc(C(=O)NNC(=S)NC(=O)c2ccccc2[N+](=O)[O-])cc1
[6]
  EC50: 2.79 µM (active)
Streptokinase A
  EC50: > 150 µM (not active)
Streptococcus
  EC50: 10.8 µM (active)

## COC(=O)c1ccc(CNC(=O)COC(=O)COc2ccc(OC)cc2)cc1
[5]
  EC50: > 195 µM (not active)

## CCN(CC)C(S)=Nc1ccc(Cl)c(Cl)c1
[2]
  EC50: > 260 µM (inactive)

## Cc1ccc(NC(=O)Cn2c(CCC(=O)O)ccc2-c2cccs2)cc1
[2]
  EC50: > 260 µM (inactive)

## COc1ccc(O)c(CN2CCC(n3nccc3NC(=O)CCOc3ccccc3)CC2)c1
[6]
  EC50: > 150 µM (not active)
Streptokinase A
  EC50: > 150 µM (not active)
Streptococcus
  EC50: > 150 µM (not active)

## Cn1c(CO)cnc1SCC(=O)c1ccc(Cl)cc1
[2]
  EC50: > 260 µM (inactive)

## CC(=O)Oc1ccc(-c2ccc(C(=O)Nc3cccc(S(=O)(=O)N4CCOCC4)c3)cc2)cc1
[4]
  AC50: 1.52 µM (active)

## CCCc1cc(O)nc(SCc2csc(-c3ccccc3)n2)n1
[1]
  EC50: > 160 µM (inactive)
[3]
  EC50: 2.81 µM (active)

## CCCc1nc(NC2CCCCC2)c(C#N)c2c1COC(C)(C)C2
[4]
  AC50: 6.71 µM (active)

## Cc1cccc(NC2(C(F)(F)F)N=C(c3ccccc3)NC2=O)n1 (configuration not stated)
Cytochrome P450 2C9
  AC50: 12.6 µM (inconclusive)
[5]
  EC50: 71.7 µM (active)
Cytochrome P450 3A4
  AC50: 15.8 µM (inconclusive)
Cytochrome P450 2C19
  AC50: 8.91 µM (inconclusive)

## Nc1cc(-c2ccco2)no1
[2]
  EC50: 60.4 µM (active)

## O=C(Cc1ccccc1)NCCS(=O)(=O)N1CCN(c2ccccc2)CC1
[6]
  EC50: > 150 µM (not active)
Streptokinase A
  EC50: > 150 µM (not active)
Streptococcus
  EC50: > 150 µM (not active)

## Cc1cc(-c2cc(C(=O)O)c3ccccc3n2)c(C)s1
[1]
  EC50: > 160 µM (inactive)
[3]
  EC50: 3.94 µM (active)

## CNc1ccc(OC)cc1-n1cnc(-c2ccc([N+](=O)[O-])cc2)c1
[1]
  EC50: > 150 µM (inactive)
[3]
  EC50: > 38 µM (not active)

## C(=C\c1nc(N2CCCCCC2)c2ccccc2n1)/c1ccccc1
[4]
  AC50: 3.73 µM (active)
INS1
  AC50: 6.21 µM (active)

## Clc1cccc(-c2nn3c(Cn4cnc5ccccc54)nnc3s2)c1
[11]
  CC50: > 50 µM (active)

## Cc1ccccc1-n1c(C)nc2ccccc21
[5]
  EC50: > 195 µM (not active)

## O=C(COC(=O)CNC(=O)c1ccccc1F)Nc1cccnc1Cl
[5]
  EC50: > 195 µM (not active)

## Cc1ccc(N2C(=O)NC(NS(=O)(=O)c3ccccc3)(C(F)(F)F)C2=O)cc1 (configuration not stated)
[5]
  EC50: > 195 µM (not active)

## CCC(C(=O)OCC(=O)Nc1cc(Cl)ccc1Cl)c1ccccc1 (configuration not stated)
[5]
  EC50: > 195 µM (not active)

## CCN(CC)CCN(C(=O)CCS(=O)(=O)c1ccccc1)c1nc2cc(C)cc(C)c2s1
[6]
  EC50: > 150 µM (not active)
Streptokinase A
  EC50: > 150 µM (not active)
[12]
  EC50: 0.697 µM (active)
Streptococcus
  EC50: > 150 µM (not active)
[13]
  EC50: > 30 µM (not active)

## CNC(=O)/C(C#N)=C\c1cc(C)n(-c2ccc(N3CCOCC3)cc2)c1C
[6]
  EC50: 30.4 µM (active)
Streptokinase A
  EC50: > 150 µM (not active)
Streptococcus
  EC50: 98.2 µM (active)

## CCOC(=O)C1=C(c2ccccc2)N=C(S)NC1c1cc([N+](=O)[O-])ccc1OC (configuration not stated)
[11]
  CC50: > 50 µM (active)

## N#C/C(=C(/O)c1ccco1)c1nc2ccccc2[nH]1
[1]
  EC50: > 150 µM (inactive)
[3]
  EC50: 4.11 µM (active)

## COCCCN1C(=O)c2[nH]nc(-c3ccccc3O)c2C1c1cccc(Cl)c1 (configuration not stated)
[2]
  EC50: 59.7 µM (active)

## Cc1ccc(Cn2ccc(=O)c(OCc3c(Cl)cccc3Cl)c2C)cc1
[6]
  EC50: 6.66 µM (active)
Streptokinase A
  EC50: 13.7 µM (active)
Streptococcus
  EC50: > 150 µM (not active)
[8]
  AC50: 6.11 µM (active)
[10]
  AC50: 60.6 µM (active)
[9]
  AC50: 6.57 µM (active)

## CC(=O)OC(C)C(=O)NS(=O)(=O)c1ccc(C)cc1 (configuration not stated)
[2]
  EC50: > 260 µM (inactive)

## O=C(CCc1nnc(Cc2ccc(-c3ccccc3)cc2)o1)N1CCCC1
[2]
  EC50: > 260 µM (inactive)

## O=C(c1ccc2nccnc2c1)N1CCCC(Nc2ccc(F)c(F)c2)C1 (configuration not stated)
[2]
  EC50: > 260 µM (inactive)

## CCc1cccc(NC(=O)c2cccc(S(=O)(=O)N3CCN(C)CC3)c2)c1
[2]
  EC50: > 260 µM (inactive)

## COc1cc(/C=N/NC(=S)NC2CC3C=CC2C3)cc(OC)c1OC (configuration not stated)
[2]
  EC50: > 260 µM (inactive)

## Clc1ccc(-c2cs/c(=N\c3cccnc3)n2CCCn2ccnc2)cc1Cl
[11]
  CC50: 15.4 µM (active)

## NC(=O)CN1CCCC1=O
[5]
  EC50: > 195 µM (not active)

## Nc1ncnc2c1ncn2[C@@H]1O[C@H](CO)C[C@H]1O [CORDYCEPIN]
[1]
  EC50: > 150 µM (inconclusive)
[3]
  EC50: 4.1 µM (active)
